Source: patent US20030195242A1, “Use of Cox-2 inhibitors to prevent recurrences of herpesvirus infections” (priority 2002, published 2003)

Tests used:
Type in all cases: in vivo, BALB/c mice
[1] = test system: McKrae strain of HSV-1; assay: Heat-stress reactivation of latent HSV-1 in mice: infectious virus on the ocular surface (celecoxib); conditions: not stressed
Text: (§1) To test the effect of a selective COX-2 inhibitor on recurrence of HSV, female BALB/c mice (The Jackson Laboratory, Bar Harbor, Me.) at 4 weeks of age were used. The strain of HSV and the method of propagation were as described in Example 1.
(§2) The mice were infected by the topical ocular route, and the establishment of a corneal infection was documented by slit lamp examination and ocular swabs on day 3 after infection. Only animals which were successfully infected were retained for use in these experiments. Thirty days after infection, groups of 15 latently infected and 15 uninfected mice were treated with the COX 2 inhibitor, celecoxib (G. D. Searle & Co., Skokie, Ill.). The dose of celecoxib that would inhibit viral reactivation was determined in a preliminary experiment in which groups of mice were injected intraperitoneally with 0.1, 0.5, 1.0, and 5.0 mg of celecoxib four times daily. The mice were treated one day before heat stress and the day of the heat stress. […] This dosage was used in all subsequent experiments.
(§3) Two days prior to hyperthermic stress, uninfected mice and latently infected mice were treated four times daily with celecoxib at a concentration of 0.5 mg per treatment. […] Units of Infectious virus were recorded as units of cytopathic effect over a period of seven days. […] The units of cytopathic effect were recorded over a seven day incubation period. […]

[2] = test system: McKrae strain of HSV-1; assay: Heat-stress reactivation of latent HSV-1 in mice: infectious virus in the trigeminal ganglia (celecoxib); conditions: not stressed
Text: as §1, §2, §3

[3] = test system: McKrae strain of HSV-1; assay: Preliminary dose-finding experiment for inhibition of viral reactivation by celecoxib; conditions: IP four times daily; 0.1, 0.5, 1.0 and 5.0 mg tested; one day before and day of heat stress
Experimental: as §2

[4] = test system: McKrae strain of HSV-1; assay: Heat-stress reactivation of latent HSV-1 in mice: infectious virus on ocular surface swabs (ASA)
Experimental: The McKrae strain of HSV-1 was propagated in Vero cells (ATCC No. CCL-81, American Type Culture Collection, Manassass, Va.), titered by viral plaque assay, and stored at −70° C. until used to infect animals.
(§4) Ocular swabs were immersed in 0.2 ml of complete tissue culture medium consisting of RPMI-1640, 10% fetal bovine serum (FBS), and an antibiotic-antimycotic mixture (Life Technologies, Grand Island, N.Y.). The swabs in culture medium were stored at 4° C. until testing by plaque assay. The determination of infectious virus in the cornea and in the trigeminal ganglia of animals were performed in a similar manner. Pairs of corneas and ganglia from individual mice were placed in separate tubes in 0.2 ml of complete medium, homogenized, clarified by centrifugation at 14,000×g for 5 minutes and the supernatant tested for infectious virus on Vero cells.
(§5) Male BALB/c strain mice (The Jackson Laboratory, Bar Harbor, Me.) were infected at 5 weeks of age by topical application of 5×10^5 plaque forming units of the McKrae strain HSV-1 following superficial scratching of the cornea. Documentation of the success of viral infection was determined by culturing ocular swabs taken on days 3 and 5 after infection. Animals without infectious virus on both days 3 and 5 in both eyes were excluded from use in these experiments. Thirty days after infection the eyes were swabbed to establish that infectious virus was no longer present on the ocular surface. Groups of uninfected age and sex matched mice were used as control animals in this study.
(§6) To test the effect of acetylsalicylic acid (ASA) on reactivation of HSV induced by heat stress, two sets of experiments were performed. In one set, groups of mice with latent HSV were immersed in 43° C. water up to their necks for 10 minutes. Following the hyperthermic stress, the animals were dried and given an intraperitoneal (IP) injection of 0.1 mg of ASA (Sigma Chemical Co., St. Louis, Mo.) suspended in 0.1 ml saline. At 8 and 16 hours after hyperthermia, the animals were again treated with ASA. Control mice were given IP injections of saline on the same schedule. At 24 hr after hyperthermic stress, the eyes were swabbed, the mice were sacrificed, and the corneas and trigeminal ganglia analyzed for infectious virus and viral DNA.
(§7) In a second experiment, groups of mice were treated IP for 3 days prior to hyperthermic stress at 8 hr intervals on each of the 3 days. The animals were then heat stressed, treated immediately after stress with ASA, and treated at 8 and 16 hr after hyperthermic stress. Control mice were given IP injections of saline on the same schedule. Two additional groups of mice were prophylactically treated by oral administration of 0.1 mg ASA or saline on the same dose schedule. In each experiment, animals were subdivided into those which were hyperthermically stressed and those which were not stressed. As above, the eyes of these animals were swabbed at 24 hr after stress and then sacrificed for analysis of infectious virus and viral DNA in their corneas and trigeminal ganglia.
(§8) Control mice for each of these experiments included animals which were latent for HSV-1 but which were not heat stressed. Subsets of this control group included animals placebo-treated and animals treated with ASA. Two additional control groups of animals were those which were not latent for HSV-1, but which were either treated with placebo or ASA on the schedules outlined above.

[5] = test system: McKrae strain of HSV-1; assay: Heat-stress reactivation of latent HSV-1 in mice: infectious virus in cornea and trigeminal ganglia homogenates (ASA)
Experimental: as §4, §5, §6, §7, §8

[6] = test system: McKrae strain of HSV-1; assay: Quantitation of viral DNA by PCR in cornea and trigeminal ganglion of latently infected mice (ASA); conditions: pooled from six mice
Text: Quantitation of viral DNA in tissue homogenates was made using the polymerase chain reaction (PCR), as previously reported. See B. M. Gebhardt et al., “9-(4-hydroxybutyl)-N^2-phenylguanine (HBPG), a thymidine kinase inhibitor, suppresses herpes virus reactivation in mice,” Antiviral Res., vol. 30, pp. 87-94 (1996); and J. M. Hill et al., “Quantitative analysis of polymerase chain reaction products by dot blot,” Analyt. Biochem., vol. 235, pp. 44-48 (1996). In brief, the procedure involves comparing DNA extracted from experimental and control tissue samples containing viral DNA, and performing serial dilutions with DNA from homologous tissue homogenates of uninfected animals. Using a log dilution series and previously determined quantities of viral DNA, it is possible to obtain a series of curves which permit the sensitive and reproducible determination of viral DNA in experimental samples. The sensitivity of this procedure permits the determination of differences of 100 viral genome equivalents per sample. In each experimental series, standard curves were conducted along with the analyses of the tissue homogenates from experimental (drug treated) and control (placebo treated) mice.
as §6, §7

[7] = 0.5 mg celecoxib four times daily IP for two days
[8] = 0.5 mg celecoxib four times daily orally for two days
[9] = Experiment 1, heat stressed, ASA 0.1 mg IP after stress and at 8 and 16 h, swabs 24 hrs after heat stress
[10] = Experiment 1, latent mice not stressed, ASA-treated
[11] = Experiment 2, heat stressed, ASA 0.1 mg IP after stress and at 8 and 16 h, swabs 24 hrs after heat stress
[12] = Experiment 2, latent mice not stressed, ASA-treated
[13] = Experiment 3, heat stressed, ASA 0.1 mg IP after stress and at 8 and 16 h, swabs 24 hrs after heat stress
[14] = Experiment 3, latent mice not stressed, ASA-treated
[15] = Cornea, ASA from time of hyperthermic stress, 24 h after stress
[16] = Prophylactic ASA IP, 3 days prior to stress, cornea, 24 hrs after stress
[17] = Prophylactic ASA IP, 3 days prior to stress, trigeminal ganglia, 24 hrs after stress
[18] = Prophylactic ASA oral gavage 0.1 mg, 3 days prior to stress, cornea, 24 hrs after stress
[19] = Prophylactic ASA oral gavage 0.1 mg, 3 days prior to stress, trigeminal ganglia, 24 hrs after stress
[20] = Trigeminal ganglia, ASA from time of hyperthermic stress, 24 h after stress

SMILES: Cc1ccc(-c2cc(C(F)(F)F)nn2-c2ccc(S(N)(=O)=O)cc2)cc1 [celecoxib]
- Infectious Virus on the Ocular Surface (mice positive/total) [1, 7]: 0/12
- Infectious Virus on the Ocular Surface (mice positive/total) [1, 8]: 0/14
- Infectious Virus in the Trigeminal Ganglia (mice positive/total) [2, 7]: 0/12
- Infectious Virus in the Trigeminal Ganglia (mice positive/total) [2, 8]: 0/10
- Most effective dose in preventing viral recurrence [3]: 0.5 mg

SMILES: CC(=O)Oc1ccccc1C(=O)O [ASA, acetylsalicylic acid]
- Levels of infectious virus in ocular tear film compared to placebo-treated mice ([4]; ASA IP or orally for three days prior to hyperthermic stimulus, data not shown): significantly lower
- Infectious Virus (no. positive/total), ocular surface swabs [4, 9]: 2/12
- Percent of ocular swab cultures which contained virus [4, 9]: (17%)
- Infectious Virus (no. positive/total), ocular surface swabs [4, 10]: 0/10
- Percent of ocular swab cultures which contained virus [4, 10]: (0%)
- Infectious Virus (no. positive/total), ocular surface swabs [4, 11]: 3/12
- Percent of ocular swab cultures which contained virus [4, 11]: (25%)
- Infectious Virus (no. positive/total), ocular surface swabs [4, 12]: 0/8
- Percent of ocular swab cultures which contained virus [4, 12]: (0%)
- Infectious Virus (no. positive/total), ocular surface swabs [4, 13]: 3/12
- Percent of ocular swab cultures which contained virus [4, 13]: (25%)
- Infectious Virus (no. positive/total), ocular surface swabs [4, 14]: 0/10
- Percent of ocular swab cultures which contained virus [4, 14]: (0%)
- Infectious Virus (no. positive/total), cornea homogenates [5, 15]: 5/36
- Percent of cornea homogenate cultures which contained virus [5, 15]: (14%)
- Infectious Virus (no. positive/total), cornea homogenates [5, 16]: 2/10
- Percent of cornea homogenate cultures which contained virus [5, 16]: 20%
- Infectious Virus (no. positive/total), trigeminal ganglia homogenates [5, 17]: 3/10
- Percent of trigeminal ganglia homogenate cultures which contained virus [5, 17]: 30%
- Infectious Virus (no. positive/total), cornea homogenates [5, 18]: 2/14
- Percent of cornea homogenate cultures which contained virus [5, 18]: 14%
- Infectious Virus (no. positive/total), trigeminal ganglia homogenates [5, 19]: 4/14
- Percent of trigeminal ganglia homogenate cultures which contained virus [5, 19]: 29%
- Infectious Virus (no. positive/total), trigeminal ganglia homogenates [5, 20]: 8/36
- Percent of trigeminal ganglia homogenate cultures which contained virus [5, 20]: (22%)
- Viral DNA (genome equivalents) ([6]; ASA prophylaxis prior to heat stress, heat stressed, TG): 4.9 × 10^4 genome equivalents
- Viral DNA (genome equivalents) ([6]; ASA prophylaxis prior to heat stress, heat stressed, cornea): 0.4 × 10^4 genome equivalents
- Viral DNA (genome equivalents) ([6]; ASA prophylaxis schedule, not stressed, TG): 2.3 × 10^2 genome equivalents
- Viral DNA (genome equivalents) ([6]; ASA prophylaxis schedule, not stressed, cornea): <1 × 10^2 genome equivalents
- Viral DNA (genome equivalents) ([6]; Heat stressed, TG, ASA from time of stress): 2.1 × 10^4 genome equivalents
- Viral DNA (genome equivalents) ([6]; Heat stressed, cornea, ASA from time of stress): 0.9 × 10^3 genome equivalents
- Viral DNA (genome equivalents) ([6]; Not stressed, TG, ASA-treated): 1.5 × 10^2 genome equivalents
- Viral DNA (genome equivalents) ([6]; Not stressed, cornea, ASA-treated): <1 × 10^2 genome equivalents
